Key:
[1] = biological target: ERα receptor in MCF-7 human ductal carcinoma breast cell line (Homo sapiens (Human), UniProt P03372); experiment: MCF-7 ER down regulation assay (immuno-fluorescence); assay type: cell-based; settings: MCF-7 cells, 18-22 hours incubation; read-out: ER down regulation IC50 value
[2] = Human plasma protein binding, equilibrium dialysis (RED); assay type: in vitro ADME; settings: dialysis for 18 hours
Protocol: Human Plasma Protein Binding
The automated equilibrium dialysis assay in human plasma uses the RED (Rapid Equilibrium Dialysis) Device and sample handling. The assay generally runs over two to three days including delivery of results. After dialysis for 18 hours, plasma and buffer samples are prepared for analysis by liquid chromatography and mass spectrometry. Samples are generally tested in singlicates and quantified by LC/MSMS by using a 7-point calibration curve in plasma. The compounds are pooled together in plasma pools up to 10 compounds. Three reference compounds are used in each run, Propranolol, Metoprolol and Warfarin. Warfarin is used as a control in each pool and Propranolol and Metoprolol are placed randomly in each run. An in-house Excel macro is used for preparation of files for the robot and the mass spectrometer and also used for the calculations of fraction unbound (fu %) in plasma.

Chain of ERα receptor in MCF-7 human ductal carcinoma breast cell line (P03372 whole entry): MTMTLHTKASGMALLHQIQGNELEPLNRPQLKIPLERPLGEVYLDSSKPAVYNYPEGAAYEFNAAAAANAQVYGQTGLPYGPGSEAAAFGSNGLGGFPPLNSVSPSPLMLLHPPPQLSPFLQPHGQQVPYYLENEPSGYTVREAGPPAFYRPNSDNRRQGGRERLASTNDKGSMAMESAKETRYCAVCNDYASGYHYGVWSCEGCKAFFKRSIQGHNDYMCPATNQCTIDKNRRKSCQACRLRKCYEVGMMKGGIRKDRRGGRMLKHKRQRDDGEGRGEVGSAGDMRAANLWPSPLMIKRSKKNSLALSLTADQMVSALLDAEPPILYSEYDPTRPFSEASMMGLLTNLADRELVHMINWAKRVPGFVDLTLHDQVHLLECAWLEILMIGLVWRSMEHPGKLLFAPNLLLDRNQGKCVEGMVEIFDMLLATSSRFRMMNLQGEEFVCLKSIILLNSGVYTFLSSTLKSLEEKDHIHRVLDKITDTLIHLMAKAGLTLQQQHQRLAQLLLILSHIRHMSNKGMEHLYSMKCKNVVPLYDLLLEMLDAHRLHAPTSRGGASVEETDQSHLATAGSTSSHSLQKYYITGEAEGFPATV

SMILES | DC50 [1] | Human plasma protein binding (% free) [2]
C[C@@H]1Cc2c(ccc3[nH]ncc23)[C@@H](c2ccc(OCCN3CC(CF)C3)cn2)N1CC(F)(F)F [Example 49, (6S,8R)-6-(5-(2-(3-(fluoromethyl)azetidin-1-yl)ethoxy)pyridin-2-yl)-8-methyl-7-(2,2,2-trifluoroethyl)-6,7,8,9-tetrahydro-3H-pyrazolo[4,3-f]isoquinoline] | 210 pM | 23 % free
COc1cc(OCCN2CC(CF)C2)ccc1[C@@H]1c2ccc3[nH]ncc3c2C[C@@H](C)N1CC1(F)CC1 [Example 6, (6S,8R)-7-((1-fluorocyclopropyl)methyl)-6-(4-(2-(3-(fluoromethyl)azetidin-1-yl)ethoxy)-2-methoxyphenyl)-8-methyl-6,7,8,9-tetrahydro-3H-pyrazolo[4,3-f]isoquinoline] | 130 pM | 21 % free
COc1cc(OCCN2CC(CF)C2)ccc1[C@@H]1c2ccc3[nH]ncc3c2C[C@@H](C)N1CC(C)C [Example 9, (6S,8R)-6-(4-(2-(3-(fluoromethyl)azetidin-1-yl)ethoxy)-2-methoxyphenyl)-7-isobutyl-8-methyl-6,7,8,9-tetrahydro-3H-pyrazolo[4,3-f]isoquinoline] | 500 pM | 52 % free
C[C@@H]1Cc2c(ccc3[nH]ncc23)[C@@H](c2ccc(OCCN3CC(CF)C3)cn2)N1CC1(F)CC1 [Example 8, (6S,8R)-7-((1-fluorocyclopropyl)methyl)-6-(5-(2-(3-(fluoromethyl)azetidin-1-yl)ethoxy)pyridin-2-yl)-8-methyl-6,7,8,9-tetrahydro-3H-pyrazolo[4,3-f]isoquinoline] | 390 pM | 34 % free
C[C@@H]1Cc2c(ccc3[nH]ncc23)[C@@H](c2ccc(OCCN3CC(CF)C3)cn2)N1CC(F)F [Example 51, (6S,8R)-7-(2,2-difluoroethyl)-6-(5-(2-(3-(fluoromethyl)azetidin-1-yl)ethoxy)pyridin-2-yl)-8-methyl-6,7,8,9-tetrahydro-3H-pyrazolo[4,3-f]isoquinoline] | 540 pM | 49 % free
COc1cc(OCCN2CC(CF)C2)ccc1[C@@H]1c2ccc3[nH]ncc3c2C[C@@H](C)N1CC(C)(C)F [Example 5, (6S,8R)-7-(2-fluoro-2-methylpropyl)-6-(4-(2-(3-(fluoromethyl)azetidin-1-yl)ethoxy)-2-methoxyphenyl)-8-methyl-6,7,8,9-tetrahydro-3H-pyrazolo[4,3-f]isoquinoline] | 160 pM | 6.2 % free
